Assay results: patent publication US6562874B1, “Compositions comprising combination of DEFI and modified DEFI and methods of making” (Unilever Home & Personal Care USA division of Conopco, Inc., priority 1999, dated 2003)

How the values were obtained:
zein protein = experiment: Mildness (Zein solubilization), standard Zein assay; conditions: Table 5; 1% aqueous solution, 1.5 g zein, one hour
Protocol: Mildness (Zein Solubilization)
This test is based on the correlation noted between the amount of zein solubilized by an aqueous surfactant solution and its irritancy; the more zein a surfactant dissolves, the greater its intrinsic irritation potential. The procedure is conducted gravimetrically: a 1% aqueous solution of surfactant mixture is added to 1.5 g of zein protein and this mixture is allowed to stir at a constant rate for one hour. This mixture is then centrifuged (for approximately 25 minutes at 4000 rpm) and the undissolved zein is isolated, rinsed and allowed to dry in a vacuum over at 60° C. to constant weight. The zein solubilized is determined by difference.

[1] = Foaming protocol for Examples 26-36, 250 mL graduated cylinder; format: physicochemical; conditions: Table 5, 1 g in 20 mL water, 250 mL cylinder, shaken 60 seconds
Protocol: Protocol for Examples 26-36
One gram of final active mix is placed in a 250 mL glass-stoppered graduated cylinder and dispersed in 20 mL of distilled, de-ionized water; it is heated to 45° C. in a water bath until the temperature of the dispersion is at equilibrium. (note: For measurements done at 20° C., the water bath is set to 20° C. and the same procedure is followed). The sealed cylinder is then shaken vigorously for 60 seconds after which time the foam volume is measured in mL and recorded.

[2] = Foaming measurement protocol (Examples 1-25), 100 mL graduated cylinder; format: physicochemical; conditions: 1 g active mix in 20 mL water, 45° C., shaken 60 seconds, 100 mL cylinder
Protocol: Foaming Measurement Protocol (Examples 1-25)
One gram of final active mix is placed in a 100 mL glass stoppered graduated cylinder and dispersed in 20 mL of distilled de-ionized water; it is heated to 45° C. in a water bath until the temperature of the dispersion is at equilibrium. The sealed cylinder is then shaken vigorously for 60 seconds after which time the foam volume is measured in mL and recorded.

Row | Zein (zein protein) [%] | Foam at 20° C. ([1]; 20° C.) [mL] | Foam at 45° C. ([1]; 45° C.) [mL] | Foam Vol. ([2]; Table 1) [mL] | Foam Vol. ([2]; Table 2) [mL] | Substance
1 | 50.0 | 122 | 135 | – | – | Coco N-Methyl Taurate
2 | – | – | – | 89.5 | 95 | sodium lauroyl isethionate [SLI - Control]
